The results in this text go back to patent US9549921B2, “Heterocyclic compounds and methods of use thereof for the treatment of hepatitis C” (priority 2014, dated 2017).

Where two headings read alike, the source gives them in different places.

The test system of assay [1] is HCV replicon genotype 1a. Briefly: HCV replicon assay, genotype 1a (cell ELISA for NS3/4A). The assay is classed as cell-based, hepatitis C virus. The procedure: (§1) The HCV NS5B inhibitory activity of the present compounds may be tested using assays known in the art. The HCV NS5B polymerase inhibitors described herein have activities in a genotype 1b replicon assay as described in the Examples. The assay is performed by incubating a replicon harboring cell-line in the presence of inhibitor for a set period of time and measuring the effect of the inhibitor on HCV replicon replication either directly by quantifying replicon RNA level, or indirectly by measuring enzymatic activity of a co-encoded reporter enzyme such as luciferase or β-lactamase. By performing a series of such measurements at different inhibitor concentrations, the effective inhibitory concentration of the inhibitor (EC50 or EC90) is determined. See Jan M. Vrolijk et al., A replicons-based bioassay for the measurement of interferons in patients with chronic hepatitis C, 110 J. VIROLOGICAL METHODS 201 (2003). Such assays may also be run in an automated format for high through-put screening. See Paul Zuck et al., A cell-based β-lactamase reporter gene assay for the identification of inhibitors of hepatitis C virus replication, 334 ANALYTICAL BIOCHEMISTRY 344 (2004).
(§2) Measurement of inhibition by compounds was performed using the HCV replicon system. Several different replicons encoding different HCV genotypes or mutations were used. In addition, potency measurements were made using different formats of the replicon assay, including different ways of measurements and different plating formats. See Jan M. Vrolijk et al., A replicons-based bioassay for the measurement of interferons in patients with chronic hepatitis C, 110 J. VIROLOGICAL METHODS 201 (2003); Steven S. Carroll et al., Inhibition of Hepatitis C Virus RNA Replication by 2′-Modified Nucleoside Analogs, 278(14) J. BIOLOGICAL CHEMISTRY 11979 (2003). However, the underlying principles are common to all of these determinations, and are outlined below.
(§3) Stable neomycin phosphotransferase encoding replicons-harboring cell lines were used, so all cell lines were maintained under G418 selection prior to the assay. Potency was deteremined using a cell ELISA assay with an antibody to the replicons encoded NS3/4a protease. See Caterina Trozzi et al., In Vitro Selection and Characterization of Hepatitis C Virus Serine Protease Variants Resistant to an Active-Site Peptide Inhibitor, 77(6) J. Virol. 3669 (2003). To initiate an assay, replicon cells were plated in the presence of a dilution series of test compound in the absence of G418. Typically, the assays were performed in a 96-well plate formate for manual operation, or a 384-well plate format for automated assay. Replicon cells and compound were incubated for 96 hours. At the end of the assay, cells were washed free of media and compound, and the cells were then lysed. RNA was quantified indirectly through detection of replicon-encoded NS3/4A protein levels, through an ELISA-based assay with an antibody specific for NS3/4A. IC50 determinations were calculated as a percentage of a DMSO control by fitting the data to a four-parameter fit function and the data obtained is provided in the table below.
(§4) Data for selected compounds of the present invention was obtained for genotypes 1a and 1b using this method and is provided in the table below: […]
On the technique in general: A replicon is a self-replicating genome or part of one, used to study replication in cells.

Assay [2] concerns HCV replicon genotype 1b. Kind of assay: HCV replicon assay, genotype 1b (cell ELISA for NS3/4A). The assay is classed as cell-based, hepatitis C virus. The procedure: as §1, §2, §3, §4
Where [3] appears, read: Hepatitis C virus, 96 h, read-out: 1a IC50 (nM), HCV genotype 1a replicon cells, 96 hours incubation, NS3/4A ELISA readout, % of DMSO control.
[4] abbreviates: read-out: 1b IC50, HCV genotype 1b replicon cells, 96 hours incubation, NS3/4A ELISA readout, % of DMSO control.
[5] abbreviates: Hepatitis C virus, 96 h, read-out: 1b IC50 (nM), HCV genotype 1b replicon cells, 96 hours incubation, NS3/4A ELISA readout, % of DMSO control.
[6] abbreviates: read-out: 1a IC50, HCV genotype 1a replicon cells, 96 hours incubation, NS3/4A ELISA readout, % of DMSO control.

On to `CNC(=O)c1c(-c2ccc(F)cc2)oc2cc(N(C)S(C)(=O)=O)c([C@@H]3CCCN(C(=O)c4cc5c(F)cccc5n4C)C3)cc12` (single isomer, unassigned) [Example 25, 5-(1-(4-fluoro-1-methyl-1H-indole-2-carbonyl)piperidin-3-yl)-2-(4-fluorophenyl)-N-methyl-6-(N-methylmethylsulfonamido)benzofuran-3-carboxamide], for which the IC50 in assay [1] (setting [3]) came to 16.4 nM; in assay [2] (setting [4]) it was 5.26 nM.

With `CNC(=O)c1c(-c2ccc(F)cc2)oc2cc(N(C)S(C)(=O)=O)c([C@H]3CCCN(c4nc5c(C#N)cccc5o4)C3)cc12` [Example 4, (R)-5-(1-(4-cyanobenzo[d]oxazol-2-yl)piperidin-3-yl)-2-(4-fluorophenyl)-N-methyl-6-(N-methylmethylsulfonamido)benzofuran-3-carboxamide], the IC50 in assay [1] (setting [3]) was found to be 7.03 nM; in assay [2] (setting [5]) it was 6.53 nM.

Regarding `CNC(=O)c1c(-c2ccc(F)cc2)oc2cc(N(C)S(C)(=O)=O)c([C@@H]3CCCN(c4nc5c(F)cccc5o4)C3)cc12` (single isomer, unassigned) [Example 50, 5-(1-(4-fluorobenzo[d]oxazol-2-yl)piperidin-3-yl)-2-(4-fluorophenyl)-N-methyl-6-(N-methylmethylsulfonamido)benzofuran-3-carboxamide], the IC50 was 81.7 nM in assay [1] (setting [6]) and 20.1 nM in assay [2] (setting [4]).

Regarding `CNC(=O)c1c(-c2ccc(F)cc2)oc2cc(N(C)S(C)(=O)=O)c([C@H]3CCCN(S(=O)(=O)Cc4ccccc4)C3)cc12` [Example 137, 5-[(3R)-1-(benzylsulfonyl)piperidin-3-yl]-2-(4-fluorophenyl)-N-methyl-6-[methyl(methylsulfonyl)amino]-1-benzofuran-3-carboxamide], the IC50 in assay [1] (setting [3]) turned out to be 2.15 nM; in assay [2] (setting [5]), 3.04 nM.

On to `CNC(=O)c1c(-c2ccc(F)cc2)oc2cc(N(C)S(C)(=O)=O)c([C@H]3CCCN(C(=O)c4[nH]c5c(F)cccc5c4C)C3)cc12` [Example 38, (R)-5-(1-(7-fluoro-3-methyl-1H-indole-2-carbonyl)piperidin-3-yl)-2-(4-fluorophenyl)-N-methyl-6-(N-methylmethylsulfonamido)benzofuran-3-carboxamide], for which the IC50 amounted to 277 nM in assay [1] (setting [3]) and 116 nM in assay [2] (setting [5]).

Turning to `CNC(=O)c1c(-c2ccc(F)cc2)oc2cc(N(C)S(C)(=O)=O)c([C@H]3CCCN(C(=O)c4nn(CC5CC5)c5ccccc45)C3)cc12` [Example 100, 5-[(3R)-1-{[1-(cyclopropylmethyl)-1H-indazol-3-yl]carbonyl}piperidin-3-yl]-2-(4-fluorophenyl)-N-methyl-6-[methyl(methylsulfonyl)amino]-1-benzofuran-3-carboxamide], the IC50 in assay [1] (setting [3]) was 65 nM; in assay [2] (setting [5]) it was 20.4 nM.

As for `CNC(=O)c1c(-c2ccc(F)cc2)oc2cc(N(C)S(C)(=O)=O)c([C@@H]3CCCN(S(=O)(=O)c4cccc(F)c4)C3)cc12` [Example 114, 2-(4-fluorophenyl)-5-{(3S)-1-[(3-fluorophenyl)sulfonyl]piperidin-3-yl}-N-methyl-6-[methyl(methylsulfonyl)amino]-1-benzofuran-3-carboxamide], the IC50 turned out to be 34.2 nM in assay [1] (setting [3]) and 8.2 nM in assay [2] (setting [5]).

Regarding `CNC(=O)c1c(-c2ccc(F)cc2)oc2cc(N(C)S(C)(=O)=O)c([C@H]3CCCN(S(=O)(=O)c4cccc5nonc45)C3)cc12` [Example 138, 5-[(3R)-1-(2,1,3-benzoxadiazol-4-ylsulfonyl)piperidin-3-yl]-2-(4-fluorophenyl)-N-methyl-6-[methyl(methylsulfonyl)amino]-1-benzofuran-3-carboxamide], the IC50 in assay [1] (setting [3]) is 139 nM; in assay [2] (setting [5]) it was 55.7 nM.

In the case of `CNC(=O)c1c(-c2ccc(F)cc2)oc2cc(N(C)S(C)(=O)=O)c([C@@H]3CCCN(C(=O)c4c[nH]cc4-c4ccc(F)cc4)C3)cc12` [Example 71, 2-(4-fluorophenyl)-5-(1-{[4-(4-fluorophenyl)-1H-pyrrol-3-yl]carbonyl}piperidin-3-yl)-N-methyl-6-[methyl(methylsulfonyl)amino]-1-benzofuran-3-carboxamide], the IC50 in assay [1] (setting [3]) amounted to 168 nM; in assay [2] (setting [5]) it was 95.4 nM.

As to `CNC(=O)c1c(-c2ccc(F)cc2)oc2cc(N(C)S(C)(=O)=O)c([C@H]3CCCN(C(=O)c4cn5c(Br)cccc5n4)C3)cc12` [Example 103, 5-{(3R)-1-[(5-bromoimidazo[1,2-a]pyridin-2-yl)carbonyl]piperidin-3-yl}-2-(4-fluorophenyl)-N-methyl-6-[methyl(methylsulfonyl)amino]-1-benzofuran-3-carboxamide], the IC50 in assay [1] (setting [3]) stood at 212 nM; in assay [2] (setting [5]) it was 110 nM.

For `CNC(=O)c1c(-c2ccc(F)cc2)oc2cc(N(C)S(C)(=O)=O)c([C@@H]3CCN(C(=O)c4cc5c(F)cccc5n4C)C3)cc12` (single isomer, unassigned) [Example 14, 5-(1-(4-fluoro-1-methyl-1H-indole-2-carbonyl)pyrrolidin-3-yl)-2-(4-fluorophenyl)-N-methyl-6-(N-methylmethylsulfonamido)benzofuran-3-carboxamide], the results for the IC50 in assay [1] (setting [6]) and in assay [2] (setting [4]) were 25.9 nM and 2.77 nM, respectively.

In the case of `CNC(=O)c1c(-c2ccc(F)cc2)oc2cc(N(C)S(C)(=O)=O)c([C@H]3CCCN(C(=O)c4c(C)c5cc(F)ccc5n4C)C3)cc12` [Example 86, 5-{(3R)-1-[(5-fluoro-1,3-dimethyl-1H-indol-2-yl)carbonyl]piperidin-3-yl}-2-(4-fluorophenyl)-N-methyl-6-[methyl(methylsulfonyl)amino]-1-benzofuran-3-carboxamide], the figures for the IC50 in assay [1] (setting [3]) and in assay [2] (setting [5]) were 234 nM and 115 nM, respectively.

Turning to `CNC(=O)c1c(-c2ccc(F)cc2)oc2cc(N(C)S(C)(=O)=O)c([C@@H]3CCCN(C(=O)c4cc5ccccc5[nH]4)C3)cc12` (single isomer, unassigned) [Example 21, 5-(1-(1H-indole-2-carbonyl)piperidin-3-yl)-2-(4-fluorophenyl)-N-methyl-6-(N-methylmethylsulfonamido)benzofuran-3-carboxamide], the IC50 in assay [1] (setting [6]) is 16.2 nM; in assay [2] (setting [5]), 9.96 nM.

On to `CNC(=O)c1c(-c2ccc(F)cc2)oc2cc(N(C)S(C)(=O)=O)c([C@H]3CCCN(S(=O)(=O)c4cc5cccc(F)c5[nH]4)C3)cc12` [Example 3, (R)-5-(1-((7-fluoro-1H-indol-2-yl)sulfonyl)piperidin-3-yl)-2-(4-fluorophenyl)-N-methyl-6-(N-methylmethylsulfonamido)benzofuran-3-carboxamide], for which the IC50 was determined as 148 nM in assay [1] (setting [3]) and 109 nM in assay [2] (setting [5]).

As for `CNC(=O)c1c(-c2ccc(F)cc2)oc2cc(N(C)S(C)(=O)=O)c([C@H]3CN(C(=O)c4cc5cccc(F)c5[nH]4)CCO3)cc12` (single isomer, unassigned) [Example 6, 5-(4-(7-fluoro-1H-indole-2-carbonyl)morpholin-2-yl)-2-(4-fluorophenyl)-N-methyl-6-(N-methylmethylsulfonamido)benzofuran-3-carboxamide], the IC50 in assay [1] (setting [3]) was determined as 11.1 nM; in assay [2] (setting [5]), 17.4 nM.

`CNC(=O)c1c(-c2ccc(F)cc2)oc2cc(N(C)S(C)(=O)=O)c([C@@H]3CCCN(C(=O)C4C5COCC54)C3)cc12` (stereo in doubt) [Example 59, 2-(4-fluorophenyl)-N-methyl-6-[methyl(methylsulfonyl)amino]-5-[1-(3-oxabicyclo[3.1.0]hex-6-ylcarbonyl)piperidin-3-yl]-1-benzofuran-3-carboxamide]: the IC50 is 308 nM in assay [1] (setting [3]) and 120 nM in assay [2] (setting [5]).
